# Assay results as given in US12459974B2, “Bicyclic peptide ligands specific for Nectin-4” (priority 2018, dated 2025).
# *1 amine or outer side, *2 acyl side, *3 side chain or, on linkers, in order; H or OH if unused. Where a SMILES comes first, the peptide text is derived from it. Bridges are numbered along the chain shown (N, C = ends). Roman numbers before positions name the chains, in order. [ ]: non-standard residue; d: D form. The star is where a group is joined. ξ: configuration not given here. TATA = O=C(CC[*:1])N1CN(C(=O)CC[*:2])CN(C(=O)CC[*:3])C1; Dolaproine = CO[C@@H]([C@@H]1CCCN1)[C@@H](C)C(=O)O; X1 = CC[C@H](C)C(C(CC(=O)[*:2])OC)N(C)[*:1]; 1Nal = N[C@@H](Cc1cccc2ccccc12)C(=O)O; X3 = O=C(CCCC(=O)[*:2])NCCC(=O)[*:1]; PABC = O=C(OCc1ccc(N[*:1])cc1)[*:2]; Hyp = O=C(O)[C@@H]1C[C@@H](O)CN1; hArg = N=C(N)NCCCC[C@H](N)C(=O)O; Cit = NC(=O)NCCC[C@H](N)C(=O)O; X2 = CC(N*)[C@@H](O)c1ccccc1; ξNMeV = CNC(C(=O)O)C(C)C; ξV = CC(C)C(N)C(=O)O; Sar = CNCC(=O)O
# Assays:
# [1] = tested on: Panc2.13 xenograft; assay: Example 3: in vivo efficacy in Panc2.13 xenograft (pancreatic cancer model) in Balb/c nude mice; design: species or system Mus Musculus
# [2] = tested on: CTG-0896; conditions: qw iv
# Text: (§1) To evaluate the antitumor activity of Bicycle Agent in Low Passage Champions TumorGraft Models of Human Breast, Esophageal, and Bladder Cancer in Immunocompromised mice.
# (§2) • Species: Mouse • Strain: Athymic Nude-Foxn1nu (Immune-compromised) • Source: Envigo: Indianapolis, Indiana • Gender: Female • Target age at initiation of dosing: At least 6-8 weeks of age • Target weight at initiation of dosing: At least 18 grams • Acclimation period: 3 days Experimental Design
# (§3) Pre-study Animals: When sufficient stock animals reach 1.0-1.5 cm^3, tumors will be harvested for re-implantation into pre-study animals. Pre-study animals will be implanted unilaterally on the left flank with tumor fragments harvested from stock animals. Each animal is implanted from a specific passage lot and documented.
# (§4) Study Animals: Pre-study tumor volumes are recorded for each experiment beginning seven to ten days after implantation. When tumors reach an average tumor volume of 150-300 mm^3, animals will be matched by tumor volume into treatment or control groups to be used for dosing and dosing initiated on Day 0.
# [3] = tested on: CTG-1171; conditions: qw iv
# Text: as §1, §2, §3, §4
# [4] = tested on: CTG-1106; conditions: qw iv
# Text: as §1, §2, §3, §4
# [5] = tested on: CTG-1771; conditions: qw iv
# Text: as §1, §2, §3, §4
# [6] = tested on: MDA-MB-468 xenograft; assay: Example 9.8: in vivo efficacy of BCY8245, BCY8781 and BCY8245 with BCY8234 in MDA-MB-468 xenograft in Balb/c nude mice; design: species or system Mus Musculus; conditions: for tumor relapse (in words): following monitoring schedule
# [7] = tested on: HCT116 xenograft; assay: Example 9.2: in vivo efficacy in HCT116 xenograft in Balb/c nude mice; design: species or system Mus Musculus; conditions: for TGI / Tumor volume (TV) / Tumor volume / T/C: day 14; for Tumor volume trace over time / Tumor volume: mean ± SEM; for T/C: treated/control group average tumor volume
# [8] = 1 mg/kg qw and 3 mg/kg qw in combination with BCY8234 300 mg/kg qw, day 21
structure (smiles),measurement,setting,value
"CC[C@H](C)C(C(CC(=O)N1CCC[C@H]1[C@H](OC)[C@@H](C)C(=O)NC(C)[C@@H](O)c1ccccc1)OC)N(C)C(=O)[C@@H](NC(=O)C(C(C)C)N(C)C(=O)OCc1ccc(NC(=O)[C@H](CCCNC(N)=O)NC(=O)C(NC(=O)CCCC(=O)NCCC(=O)N(C)CC(=O)N(C)CC(=O)N(C)CC(=O)N(C)CC(=O)N(C)CC(=O)N(C)CC(=O)N(C)CC(=O)N(C)CC(=O)N(C)CC(=O)N(C)CC(=O)N[C@H]2CSCCC(=O)N3CN4CN(C3)C(=O)CCSC[C@H](NC(=O)[C@@H](CC(=O)O)NC(=O)[C@H](Cc3cccc5ccccc35)NC(=O)[C@@H]3CCCN3C2=O)C(=O)N[C@@H](CCSC)C(=O)N[C@@H](CCCCNC(=N)N)C(=O)N[C@@H](CC(=O)O)C(=O)N[C@@H](Cc2c[nH]c3ccccc23)C(=O)N[C@@H](CO)C(=O)N[C@@H]([C@@H](C)O)C(=O)N2CCC[C@H]2C(=O)N2C[C@H](O)C[C@H]2C(=O)N[C@@H](Cc2c[nH]c3ccccc23)C(=O)N[C@H](C(N)=O)CSCCC4=O)C(C)C)cc1)C(C)C (stereo partly drawn) [BCY8245, MMAE-PABC-Cit-Val-Glutaryl-BCY8234] (I: [Sar][Sar][Sar][Sar][Sar][Sar][Sar][Sar][Sar][Sar]CP[1Nal][dD]CM[hArg]DWSTP[Hyp]WC-NH2 / II: [ξV][Cit][PABC][ξNMeV]V[X1][Dolaproine]-X2; linker I:11-I:15-I:25 via TATA; linker I:N-II:N via X3)",Tumor volume,"[1]; 5 mpk, qw, iv, day 4",231 ± 33 mm^3
same,Tumor volume,"[1]; 5 mpk, qw, iv, day 7",242 ± 34 mm^3
same,Tumor volume,"[1]; 5 mpk, qw, iv, day 9",248 ± 40 mm^3
same,Tumor volume,"[1]; 5 mpk, qw, iv, day 11",231 ± 37 mm^3
same,Tumor volume,"[1]; 5 mpk, qw, iv, day 14",238 ± 40 mm^3
same,T/C,"[1]; 5 mpk, qw, day 14",43.6%
same,TGI,"[1]; 5 mpk, qw, day 14",77.5%
same,Tumor volume,"[1]; 5 mpk, qw, day 14, Mean ± SEM (Table 19)",238 ± 40 mm^3
same,anti-tumour activity (in words),"[1]; mouse, in vivo",good anti-tumour activity
same,efficacy (in words),[2],excellent efficacy evoking tumor regression
same,efficacy (in words),[3],excellent efficacy evoking tumor regression
same,efficacy (in words),[4],excellent efficacy evoking tumor regression
same,efficacy (in words),[5],excellent efficacy evoking tumor regression
same,anti-tumor activity (in words),[6]; 0.3 mg/kg qw or biw,did not show any anti-tumor activity
same,TGI,[6]; [8],75.4%
same,Tumor volume (TV),[6]; [8],242 mm^3
same,TGI,"[6]; 1 mg/kg qw, day 21",92.1%
same,Tumor volume (TV),"[6]; 1 mg/kg qw, day 21",204 mm^3
same,tumor relapse (in words),[6]; 1 mg/kg qw,obvious tumor relapse
same,TGI,"[6]; 3 mg/kg qw, day 21",164.9%
same,Tumor volume (TV),"[6]; 3 mg/kg qw, day 21",27 mm^3
same,tumor relapse (in words),[6]; 3 mg/kg qw,didn't show any tumor relapse
same,anti-tumor activity at 3 mg/kg in presence of BCY8234 at 300 mg/kg versus alone (in words),[6]; 3 mg/kg with BCY8234 300 mg/kg,antagonized by BCY8234
same,T/C,"[6]; 0.3 mpk, qw",71.4%
same,TGI,"[6]; 0.3 mpk, qw",52.7%
same,T/C,"[6]; 1 mpk, qw",48.6%
same,TGI,"[6]; 1 mpk, qw",92.1%
same,T/C,"[6]; 3 mpk, qw",6.5%
same,TGI,"[6]; 3 mpk, qw",164.9%
same,tumor response (in words),"[6]; former vehicle group, single dose of 5 mg/kg on day 32",obvious tumor regression
same,TGI,[7]; 3 mg/kg biw,94.9%
same,Tumor volume (TV),[7]; 3 mg/kg biw,197 mm^3
same,TGI,[7]; 3 mg/kg qw,57.1%
same,Tumor volume (TV),[7]; 3 mg/kg qw,425 mm^3
same,TGI,[7]; 5 mg/kg qw,105.2%
same,Tumor volume (TV),[7]; 5 mg/kg qw,134 mm^3
same,Tumor volume trace over time,"[7]; 3 mpk, biw, iv, day 0 after the start of treatment",166 ± 18 mm^3
same,Tumor volume trace over time,"[7]; 3 mpk, biw, iv, day 2 after the start of treatment",229 ± 40 mm^3
same,Tumor volume trace over time,"[7]; 3 mpk, biw, iv, day 4 after the start of treatment",215 ± 42 mm^3
same,Tumor volume trace over time,"[7]; 3 mpk, biw, iv, day 7 after the start of treatment",213 ± 49 mm^3
same,Tumor volume trace over time,"[7]; 3 mpk, biw, iv, day 9 after the start of treatment",213 ± 48 mm^3
same,Tumor volume trace over time,"[7]; 3 mpk, biw, iv, day 12 after the start of treatment",206 ± 55 mm^3
same,TGI,"[7]; 3 mpk, biw, iv",94.9%
same,Tumor volume,"[7]; 3 mpk, biw, iv",197 ± 50 mm^3
same,T/C,"[7]; 3 mpk, biw, iv",25.6%
same,Tumor volume trace over time,"[7]; 3 mpk, biw, iv, day 14 after the start of treatment",197 ± 50 mm^3
same,Tumor volume trace over time,"[7]; 3 mpk, qw, iv, day 0 after the start of treatment",167 ± 11 mm^3
same,Tumor volume trace over time,"[7]; 3 mpk, qw, iv, day 2 after the start of treatment",209 ± 13 mm^3
same,Tumor volume trace over time,"[7]; 3 mpk, qw, iv, day 4 after the start of treatment",227 ± 17 mm^3
same,Tumor volume trace over time,"[7]; 3 mpk, qw, iv, day 7 after the start of treatment",269 ± 33 mm^3
same,Tumor volume trace over time,"[7]; 3 mpk, qw, iv, day 9 after the start of treatment",324 ± 39 mm^3
same,Tumor volume trace over time,"[7]; 3 mpk, qw, iv, day 12 after the start of treatment",348 ± 27 mm^3
same,TGI,"[7]; 3 mpk, qw, iv",57.1%
same,Tumor volume,"[7]; 3 mpk, qw, iv",425 ± 28 mm^3
same,T/C,"[7]; 3 mpk, qw, iv",55.2%
same,Tumor volume trace over time,"[7]; 3 mpk, qw, iv, day 14 after the start of treatment",425 ± 28 mm^3
same,Tumor volume trace over time,"[7]; 5 mpk, qw, iv, day 0 after the start of treatment",166 ± 35 mm^3
same,Tumor volume trace over time,"[7]; 5 mpk, qw, iv, day 2 after the start of treatment",201 ± 42 mm^3
same,Tumor volume trace over time,"[7]; 5 mpk, qw, iv, day 4 after the start of treatment",176 ± 15 mm^3
same,Tumor volume trace over time,"[7]; 5 mpk, qw, iv, day 7 after the start of treatment",183 ± 17 mm^3
same,Tumor volume trace over time,"[7]; 5 mpk, qw, iv, day 9 after the start of treatment",170 ± 16 mm^3
same,Tumor volume trace over time,"[7]; 5 mpk, qw, iv, day 12 after the start of treatment",125 ± 18 mm^3
same,TGI,"[7]; 5 mpk, qw, iv",105.2%
same,Tumor volume,"[7]; 5 mpk, qw, iv",134 ± 12 mm^3
same,T/C,"[7]; 5 mpk, qw, iv",17.4%
same,Tumor volume trace over time,"[7]; 5 mpk, qw, iv, day 14 after the start of treatment",134 ± 12 mm^3
same,tumor response (in words),"[7]; mouse, in vivo",tumor growth is restrained by BCY8245 but the tumor does not undergo regression
